Results published in ChEMBL document CHEMBL5113520, “From a Cone Snail Toxin to a Competitive MC4R Antagonist” (J Med Chem, 2022).
Where a SMILES comes first, the peptide text is derived from it. Bridges are numbered along the chain shown (N, C = ends).

Target: Melanocortin receptor 4 (Homo sapiens, UniProt P32245)
Assay: Displacement of [125I]-NDP-alpha-MSH from human MC4R expressed in CHO cells by Topcount beta counter analysis
Type: cell-based

Sequence of Melanocortin receptor 4 (P32245 whole entry): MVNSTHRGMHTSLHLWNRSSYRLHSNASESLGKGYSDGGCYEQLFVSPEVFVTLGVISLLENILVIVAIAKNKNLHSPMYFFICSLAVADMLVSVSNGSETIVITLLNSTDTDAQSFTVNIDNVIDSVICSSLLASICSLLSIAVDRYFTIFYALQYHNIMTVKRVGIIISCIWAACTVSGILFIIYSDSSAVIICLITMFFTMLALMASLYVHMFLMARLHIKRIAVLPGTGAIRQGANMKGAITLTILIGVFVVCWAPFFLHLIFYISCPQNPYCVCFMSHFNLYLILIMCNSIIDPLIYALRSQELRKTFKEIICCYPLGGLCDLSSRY

Molecule | Ki (read-out: pKi (converted)) [nM] | Ki (read-out: Ki) [nM]
CC(C)C[C@H](NC(=O)[C@H](CCCCN)NC(=O)[C@H](Cc1ccccc1)NC(=O)[C@H](CCC(N)=O)NC(=O)[C@@H]1CSSC[C@H](NC(=O)[C@H](CCC(N)=O)NC(=O)[C@H](C)NC(=O)[C@H](Cc2ccc(O)cc2)NC(=O)[C@H](Cc2c[nH]cn2)NC(=O)[C@H](Cc2ccccc2)NC(=O)[C@@H](N)CC(C)C)C(=O)N[C@@H](CCC(N)=O)C(=O)N[C@@H](C)C(=O)N2CCC[C@H]2C(=O)N2CCC[C@H]2C(=O)NCC(=O)N[C@@H](Cc2ccccc2)C(=O)N[C@@H](CCCCN)C(=O)NCC(=O)N[C@@H](CCCCN)C(=O)N[C@@H](Cc2ccccc2)C(=O)N1)C(=O)N[C@@H](CCCNC(=N)N)C(=O)N1CCC[C@H]1C(=O)N1CCC[C@H]1C(=O)O (H-LFHYAQCQAPPGFKGKFCQFKLRPP-OH; disulfide 7-18) | 245 | 
H-LFHYQQKQKPPGFAGKFQQFKLRPP-OH |  | 54
H-AFHYQQKQKPPGFKGKFQQFKLRPP-OH | 123 | 125
H-LFHYQQKQKPPGFKGKFQQFKLR-OH | 12.3 | 14
H-LFHYQQKQKPPGFKGKFQQFKLRPP-NH2 | 8.13 | 9
H-LFHYQQKQKPPGFKGKFQQFKL-OH | 27.5 | 29
H-LFHAQQKQKPPGFKGKFQQFKLRPP-OH |  | 111
CC(C)C[C@H](NC(=O)[C@H](CCC(=O)O)NC(=O)[C@H](Cc1ccccc1)NC(=O)[C@H](CCC(N)=O)NC(=O)[C@H](CCC(N)=O)N1C(=O)[C@@H](NC(=O)[C@H](CCCCN)NC(=O)CNC(=O)[C@H](CCCCN)NC(=O)[C@H](Cc2ccccc2)NC(=O)CNC(=O)[C@@H]2CCCN2C(=O)[C@@H]2CCCN2C(=O)[C@H](CCCCN)NC(=O)[C@H](CCC(N)=O)NC(=O)[C@H](CCCCN)NC(=O)[C@H](CCC(N)=O)NC(=O)[C@H](CCC(N)=O)NC(=O)[C@H](Cc2ccc(O)cc2)NC(=O)[C@H](Cc2c[nH]cn2)NC(=O)[C@H](Cc2ccccc2)NC(=O)[C@@H](N)CC(C)C)Cc2ccccc21)C(=O)N[C@@H](CCCNC(=N)N)C(=O)N1CCC[C@H]1C(=O)N1CCC[C@H]1C(=O)O | 89.1 | 91
H-LFHYQQKQKPPGFKGEFQQFKLRPP-OH |  | 203
CC(C)C[C@H](NC(=O)[C@H](CCCCN)NC(=O)[C@H](Cc1ccccc1)NC(=O)[C@H](CCC(N)=O)NC(=O)[C@@H]1CSSC[C@H](NC(=O)[C@H](CCC(N)=O)NC(=O)[C@H](C)NC(=O)[C@H](CCC(N)=O)NC(=O)[C@H](C)NC(=O)[C@H](Cc2ccc(O)cc2)NC(=O)[C@H](Cc2c[nH]cn2)NC(=O)[C@H](Cc2ccccc2)NC(=O)[C@@H](N)CC(C)C)C(=O)N2CCC[C@H]2C(=O)N2CCC[C@H]2C(=O)NCC(=O)N[C@@H](Cc2ccccc2)C(=O)N[C@@H](CCCCN)C(=O)NCC(=O)N[C@@H](CCCCN)C(=O)N[C@@H](Cc2ccccc2)C(=O)N1)C(=O)N[C@@H](CCCNC(=N)N)C(=O)N1CCC[C@H]1C(=O)N1CCC[C@H]1C(=O)O (H-LFHYAQAQCPPGFKGKFCQFKLRPP-OH; disulfide 9-18) | 245 | 
H-LAHYQQKQKPPGFKGKFQQFKLRPP-OH |  | 236
H-LFHYQQKQKPPGFKGAFQQFKLRPP-OH | 72.4 | 75
H-HYQQKQKPPGFKGKFQQFKLRPP-OH | 2040 | 2200
H-FHYQQKQKPPGFKGKFQQFKLRPP-OH | 288 | 334
H-YQQKQKPPGFKGKFQQFKLRPP-OH | 1320 | 1440
H-LFHYQQKQKPPGFKGKFQQF-OH | 53.7 | 55
Ac-LFHYQQKQKPPGFKGKFQQFKLRPP-OH | 135 | 138
H-LFHYQQKQKPPGFEGKFQQFKLRPP-OH | 257 | 262
